From US20250017905A1, “COMPOSITION FOR INHIBITING HISTAMINE-N-METHYLTRANSFERASE” (SUNTORY HOLDINGS LIMITED, priority 2021, published 2025)

Biological target: T1, recombinant human histamine-N-methyltransferase (HNMT) (Homo sapiens, UniProt P50135)
T1 construct: host or cells: Escherichia coli
Assay: Evaluation of histamine-N-methyltransferase inhibitory activity (Eurofins Panlabs, [3H]N-methylhistamine formation)
Type: biochemical
Experimental: The study was commissioned to Eurofins Panlabs. The study was performed using recombinant human histamine-N-methyltransferase (HNMT) expressed in Escherichia coli. First, HNMT (0.025 μg/mL) was incubated with L-ergothioneine (L-ergothioneine concentration: 10 μM, 30 μM, 100 μM, 300 μM, or 1000 μM) in a phosphate buffer (pH 7.8) at 37° C. for 15 minutes. Next, 20 μM histamine, 1.4 μM S-(5′-adenosyl)-L-methionine, and 0.014 μM S-adenosyl-L-[methyl-3H]methionine were added to initiate an enzymatic reaction. After incubating at 37° C. for 30 minutes, 2.5 M borate was added to terminate the reaction. Lastly, the enzyme inhibitory activity of L-ergothioneine was evaluated using the amount of [3H]N-methylhistamine formed in the reaction as an index.
The concentration (μM) on the horizontal axis is the L-ergothioneine concentration.

T1 sequence (P50135 whole entry): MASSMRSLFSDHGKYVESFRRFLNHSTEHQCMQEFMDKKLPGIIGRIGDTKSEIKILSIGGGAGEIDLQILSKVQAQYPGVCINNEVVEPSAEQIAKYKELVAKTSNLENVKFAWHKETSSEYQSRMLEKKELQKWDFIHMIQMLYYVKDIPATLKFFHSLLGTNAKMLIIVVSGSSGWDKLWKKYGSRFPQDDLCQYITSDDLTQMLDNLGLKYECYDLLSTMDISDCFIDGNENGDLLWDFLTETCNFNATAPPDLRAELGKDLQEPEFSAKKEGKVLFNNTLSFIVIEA

## C[N+](C)(C)[C@@H](Cc1c[nH]c(=S)[nH]1)C(=O)[O-] [L-ergothioneine]
10 μM, 30 μM, 100 μM, 300 μM, or 1000 μM
  histamine-N-methyltransferase inhibition (FIG. 1), in words: concentration-dependent manner
HNMT 0.025 μg/mL, phosphate buffer pH 7.8, 37° C., 20 μM histamine, 10-1000 μM tested, read-out: L-ergothioneine concentration (IC50) that inhibits 50% of substrate binding of histamine-N-methyltransferase
  IC50: 46.2 µM
